Patent publication US20120088791A1, “AMIDOBIPIPERIDINECARBOXYLATE M1 ALLOSTERIC AGONISTS, ANALOGS AND DERIVATIVES THEREOF, AND METHODS OF MAKING AND USING SAME” (VANDERBILT UNIVERSITY, priority 2009, published 2012)

Key:
rM4 = molecular target: T1, rM4 (Rattus norvegicus, UniProt P08485); experiment: Calcium mobilization assay, CHO-K1 cells stably expressing rM4-Gqi5; format: cell-based; settings: selectivity for M1; read-out: potency (EC50) versus M4
T1 construct: expressed in transfected cells; host or cells: CHO-K1 cells, also stably transfected with chimeric G-protein Gqi5
T1 sequence (P08485 1-478): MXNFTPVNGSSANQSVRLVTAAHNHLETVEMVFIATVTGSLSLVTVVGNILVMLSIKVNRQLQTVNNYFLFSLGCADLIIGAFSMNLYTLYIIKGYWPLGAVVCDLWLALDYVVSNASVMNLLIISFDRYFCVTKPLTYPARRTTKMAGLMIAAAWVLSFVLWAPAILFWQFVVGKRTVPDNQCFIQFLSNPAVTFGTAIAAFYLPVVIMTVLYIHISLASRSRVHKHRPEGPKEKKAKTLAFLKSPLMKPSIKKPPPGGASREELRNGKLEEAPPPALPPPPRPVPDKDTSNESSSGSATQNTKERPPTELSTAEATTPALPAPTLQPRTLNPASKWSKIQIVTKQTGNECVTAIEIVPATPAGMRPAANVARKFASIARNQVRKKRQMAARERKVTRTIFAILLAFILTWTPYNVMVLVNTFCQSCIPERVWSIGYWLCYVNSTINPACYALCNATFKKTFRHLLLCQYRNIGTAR
Description: (§1) Cell culture and transfections. Chinese hamster ovary (CHO-K1) cells stably expressing rat (r)M1 were purchased from the American Type Culture Collection and cultured according to their indicated protocol. CHO cells stably expressing human (h)M2, hM3, and hM5 were used and described previously (Levey et al., 1991); rM4 cDNA, provided by T. I. Bonner (National Institutes of Health, Bethesda, Md.), was used to stably transfect CHO-K1 cells purchased from the American Type Culture Collection using Lipofectamine2000. To make stable hM2 and rM4 cell lines for use in calcium mobilization assays, these cells also were stably transfected with a chimeric G-protein (Gqi5) using Lipofectamine 2000. M1, hM3, and hM5 cells were grown in Ham's F-12 medium containing 10% heat-inactivated fetal bovine serum (FBS), 20 mM HEPES, and 50 μg/ml G418 sulfate. hM2-Gqi5 cells were grown in the same medium also containing 500 μg/ml Hygromycin B. Stable rM4-Gqi5 cells were grown in DMEM containing 10% heat-inactivated FBS, 20 mM HEPES, 400 μg/ml G418 sulfate, and 500 μg/ml Hygromycin B. The rat M1 Y381A orthosteric mutant receptor cDNA was generated using the Quik-Change site-directed mutagenesis kit (Stratagene) and verified by sequencing. […]
(§2) Calcium mobilization assays. […] Calcium flux was measured over time as an increase in fluorescence (fold over basal) using the Flexstation plate reader (Molecular Devices).

hM5 = molecular target: T2, hM5 (Homo sapiens, UniProt P08912); experiment: Calcium mobilization assay, CHO cells stably expressing hM5; format: cell-based; settings: selectivity for M1; read-out: potency (EC50) versus M5
T2 construct: expressed in transfected cells; host or cells: CHO cells
T2 sequence (P08912 1-532): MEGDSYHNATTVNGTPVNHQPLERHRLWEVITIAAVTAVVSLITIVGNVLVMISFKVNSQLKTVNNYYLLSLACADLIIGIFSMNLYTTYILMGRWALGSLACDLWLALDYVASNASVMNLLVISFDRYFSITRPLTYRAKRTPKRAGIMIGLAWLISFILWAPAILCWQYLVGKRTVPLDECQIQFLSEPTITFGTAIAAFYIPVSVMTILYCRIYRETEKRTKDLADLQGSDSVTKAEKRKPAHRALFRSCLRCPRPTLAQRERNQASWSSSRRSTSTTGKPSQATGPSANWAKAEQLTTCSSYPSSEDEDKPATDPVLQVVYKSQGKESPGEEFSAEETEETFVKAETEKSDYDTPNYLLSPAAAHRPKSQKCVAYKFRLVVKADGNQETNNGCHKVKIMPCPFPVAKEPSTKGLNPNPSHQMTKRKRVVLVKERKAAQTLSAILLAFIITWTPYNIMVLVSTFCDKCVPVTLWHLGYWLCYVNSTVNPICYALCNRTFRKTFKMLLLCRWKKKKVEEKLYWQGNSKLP
Description: as §1, §2

hM2 = molecular target: T3, hM2 (Homo sapiens, UniProt P08172); experiment: Calcium mobilization assay, CHO cells stably expressing hM2-Gqi5; format: cell-based; settings: selectivity for M1; read-out: potency (EC50) versus M2
T3 construct: expressed in transfected cells; host or cells: CHO cells, also stably transfected with chimeric G-protein Gqi5
T3 sequence (P08172 1-466): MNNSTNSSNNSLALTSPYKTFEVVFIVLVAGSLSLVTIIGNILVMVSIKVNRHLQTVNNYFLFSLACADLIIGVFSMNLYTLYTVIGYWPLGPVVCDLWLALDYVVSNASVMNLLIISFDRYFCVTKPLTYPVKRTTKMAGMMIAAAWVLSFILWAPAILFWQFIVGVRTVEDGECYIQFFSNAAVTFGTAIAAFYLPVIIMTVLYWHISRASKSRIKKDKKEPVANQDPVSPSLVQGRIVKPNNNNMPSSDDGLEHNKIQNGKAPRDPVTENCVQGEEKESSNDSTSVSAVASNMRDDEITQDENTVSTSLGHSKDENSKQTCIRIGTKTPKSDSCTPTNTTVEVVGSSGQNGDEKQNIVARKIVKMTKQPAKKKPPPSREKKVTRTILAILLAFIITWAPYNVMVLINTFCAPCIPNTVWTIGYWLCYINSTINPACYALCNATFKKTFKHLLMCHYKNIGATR
Description: as §1, §2

rM1 = molecular target: T4, rM1 (Rattus norvegicus, UniProt P08482); experiment: Calcium mobilization assay, CHO-K1 cells stably expressing rM1; format: cell-based; settings: Table 1, R-enantiomers; for Emax: RM1, read-out: Efficacy (% Max ACh); for EC50: agonist-evoked calcium flux, read-out: Potency (EC50)
T4 construct: host or cells: CHO-K1
T4 sequence (P08482 1-460): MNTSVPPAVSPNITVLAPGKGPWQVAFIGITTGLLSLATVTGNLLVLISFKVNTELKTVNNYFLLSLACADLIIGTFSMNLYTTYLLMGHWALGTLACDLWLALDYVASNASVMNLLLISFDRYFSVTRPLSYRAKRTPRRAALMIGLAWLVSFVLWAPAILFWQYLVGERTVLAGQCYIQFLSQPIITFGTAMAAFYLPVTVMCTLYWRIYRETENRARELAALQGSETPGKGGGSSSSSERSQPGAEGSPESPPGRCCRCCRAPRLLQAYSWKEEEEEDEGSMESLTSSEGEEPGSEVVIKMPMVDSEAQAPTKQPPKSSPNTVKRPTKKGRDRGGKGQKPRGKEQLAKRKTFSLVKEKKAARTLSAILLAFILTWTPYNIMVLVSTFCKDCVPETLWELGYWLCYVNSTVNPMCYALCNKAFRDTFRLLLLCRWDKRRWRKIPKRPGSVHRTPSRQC
Description: Cell culture and transfections. Chinese hamster ovary (CHO-K1) cells stably expressing rat (r)M1 were purchased from the American Type Culture Collection and cultured according to their indicated protocol. CHO cells stably expressing human (h)M2, hM3, and hM5 were used and described previously (Levey et al., 1991); rM4 cDNA, provided by T. I. Bonner (National Institutes of Health, Bethesda, Md.), was used to stably transfect CHO-K1 cells purchased from the American Type Culture Collection using Lipofectamine2000. To make stable hM2 and rM4 cell lines for use in calcium mobilization assays, these cells also were stably transfected with a chimeric G-protein (Gqi5) using Lipofectamine 2000. M1, hM3, and hM5 cells were grown in Ham's F-12 medium containing 10% heat-inactivated fetal bovine serum (FBS), 20 mM HEPES, and 50 μg/ml G418 sulfate. hM2-Gqi5 cells were grown in the same medium also containing 500 μg/ml Hygromycin B. Stable rM4-Gqi5 cells were grown in DMEM containing 10% heat-inactivated FBS, 20 mM HEPES, 400 μg/ml G418 sulfate, and 500 μg/ml Hygromycin B. The rat M1 Y381A orthosteric mutant receptor cDNA was generated using the Quik-Change site-directed mutagenesis kit (Stratagene) and verified by sequencing. CHO-K1 cells were stably transfected with this cDNA using Lipofectamine2000 and screened for expression based on calcium mobilization in response to the allosteric M1 agonist N-desmethylclozapine.
Calcium mobilization assays. For measurement of agonist-evoked increases in intracellular calcium, CHO-K1 cells stably expressing muscarinic receptors were plated in 100 μl of growth medium at 5×10^4 (rM1, hM3, and hM5) or 6×10^4 cells per well (rM1 Y381A, hM2, and rM4) in Costar 96-well black-walled, tissue culture (TC)-treated, clear-bottom plates (Fisher). Cells were incubated overnight at 37° C. and 5% CO2. The next day, medium was removed from the cells, and they were incubated with 50 μl of 2 μM Fluo-4 AM diluted in assay buffer [HBSS (Invitrogen) supplemented with 20 mM HEPES and 2.5 mM probenecid, pH 7.4] for 1 h at 37° C. Dye was removed and replaced with 45 μl of assay buffer. Agonists were diluted into assay buffer at a 2× concentration and applied to cells using the automated system at 19 s into the 130 s protocol. Calcium flux was measured over time as an increase in fluorescence (fold over basal) using the Flexstation plate reader (Molecular Devices).

hM3 = molecular target: T5, hM3 (Homo sapiens, UniProt P20309); experiment: Calcium mobilization assay, CHO cells stably expressing hM3; format: cell-based; settings: selectivity for M1; read-out: potency (EC50) versus M3
T5 construct: expressed in transfected cells; host or cells: CHO cells
Description: as §1, §2

[1] = multiple preclinical models; cited from earlier work
[2] = system: Aβ 1-40 and 1-42 production; settings: in vitro; cited from earlier work
[3] = preclinical and clinical studies; cited from earlier work

T5 sequence (P20309 whole entry): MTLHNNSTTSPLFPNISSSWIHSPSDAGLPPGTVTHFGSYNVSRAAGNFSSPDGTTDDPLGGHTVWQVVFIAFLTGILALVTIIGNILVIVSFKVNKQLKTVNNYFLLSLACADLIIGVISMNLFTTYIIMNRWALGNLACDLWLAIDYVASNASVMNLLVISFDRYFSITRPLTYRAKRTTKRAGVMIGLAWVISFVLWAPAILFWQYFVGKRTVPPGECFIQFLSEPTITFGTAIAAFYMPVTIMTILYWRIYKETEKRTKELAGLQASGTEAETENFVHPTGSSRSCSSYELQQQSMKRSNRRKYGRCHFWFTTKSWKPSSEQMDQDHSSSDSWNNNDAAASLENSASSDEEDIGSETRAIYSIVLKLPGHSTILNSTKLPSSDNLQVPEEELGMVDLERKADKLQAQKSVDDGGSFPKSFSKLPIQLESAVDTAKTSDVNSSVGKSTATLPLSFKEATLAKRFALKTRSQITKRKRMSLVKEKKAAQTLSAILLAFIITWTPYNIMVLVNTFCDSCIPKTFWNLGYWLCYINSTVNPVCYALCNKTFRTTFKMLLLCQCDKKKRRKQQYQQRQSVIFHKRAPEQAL

| EC50 (rM4) [µM] | EC50 (hM5) [µM] | EC50 (hM2) [µM] | Emax (rM1) [%] | EC50 (rM1) [µM] | EC50 (hM3) [µM] | Compound | efficacy in preclinical models of schizophrenia [1] | effect on Aβ 1-40 and 1-42 production [2] | efficacy with regard to positive, negative and cognitive symptoms [3] |
| --- | --- | --- | --- | --- | --- | --- | --- | --- | --- |
| > 50 | > 50 | > 50 | 96 | 0.088 | > 50 | CCOC(=O)N1CCC(N2CCC[C@@H](NC(=O)c3ccccc3C)C2)CC1 [(R)-ethyl 3-(2-methylbenzamido)-1,4′-bipiperidine-1′-carboxylate] |  |  |  |
| > 50 | > 50 | > 50 | 91 | 0.127 | > 50 | CCOC(=O)N1CCC(N2CCC[C@@H](NC(=O)c3ccccc3)C2)CC1 [(R)-ethyl 3-benzamido-1,4′-bipiperidine-1′-carboxylate] |  |  |  |
|  |  |  |  |  |  | Cc1ccccc1CN1CCC(N2CCC(n3c(=O)[nH]c4ccccc43)CC2)CC1 [TBPB] | demonstrated efficacy | decrease Aβ 1-40 and 1-42 production in vitro |  |
|  |  |  |  |  |  | CCCCCCOc1nsnc1C1=CCCN(C)C1 [Xanomeline] |  |  | proved efficacious |
